Laboratory results from US11591634B1, “Forecasting bacterial survival-success and adaptive evolution through multiomics stress-response mapping and machine learning” (priority 2019, dated 2023).
Values after ≈ are worked out from the molar mass of the structure shown.

Columns and labels:
Type in all cases: cell-based, Streptococcus pneumoniae
[1] = system: S. pneumoniae strain TIGR4 (T4); assay: Determination of relative minimal inhibitory concentration (MIC); details: lowest concentration that abolishes bacterial growth, 16 hours, 37° C.; for MIC: Streptococcus pneumoniae, read-out: 1x MIC for T4
Method: (§1) Each concentration was tested in triplicate. Growth was monitored on a Tecan Infinite 200 PRO plate reader at 37° C. for 16 hours. MIC is determined as the lowest concentration that abolishes bacterial growth (FIGS. 6A-6H).

S. pneumoniae T4 = assay: Fitness outcome under antibiotic exposure (growth curve assay); details: for Fitness: S. pneumoniae T4 wild-type, 1xMIC antibiotic, growth curves; for Survive (real survival outcome): strain T4, Adapted FALSE
Method: (§2) To test whether a gene-panel model can be trained that predicts fitness for many different conditions, a large RNA-Seq dataset was generated for the human pathogen Streptococcus pneumoniae. […] These include cell wall synthesis inhibitors (CWSI), DNA synthesis inhibitors (DSI), protein synthesis inhibitors (PSI) and RNA synthesis inhibitors ((RSI); FIG. 1A, Tables 1 & 2). Each strain was exposed to each antibiotic for 2 to 4 hours and cells were harvested for RNA-Seq at various time points. As T4 and 19F are susceptible to most antibiotics used, the transcriptional profiles in the presence of antibiotics mostly represent cases of low fitness (FIG. 1A, sensitive strain, 1xMICWT). In order to find patterns that differentiate fitness outcomes, adapted strains were generated with increased fitness in the presence of antibiotics by serial passaging wildtype T4 and 19F in the presence of increasing amounts of antibiotics. Four independent adapted populations for each strain were selected on individual antibiotics. These adapted strains could grow in the presence of antibiotic at 1.5xMIC of the wildtype strain, albeit with a small growth defect (FIGS. 6A-6E & 6F). In parallel, RNA-Seq was performed on S. pneumoniae strains D39 and T4 in a chemically defined medium, and media from which either uracil, Glycine or L-Valine was removed, which are essential for D39 but not T4. This enabled the potential identification of a common stress signature that is shared between antibiotic exposure and nutrient deprivation, and across multiple strains. Lastly, D39 was adapted to grow in the absence of each individual nutrient, after which RNA-Seq was repeated for adapted clones (Table 1 lists all 24 strains, 67 populations and 267 RNA-Seq experiments).
(§3) S. pneumoniae strain TIGR4 (T4; NC_003028.3) is a serotype 4 strain originally isolated from a patient^3,4, Taiwan-19F (19F; NC_012469.1) is a multi-drug resistant strain^5,6 and D39 (NC_008533) is a commonly used serotype 2 strain originally isolated from a patient about 90 years ago^7. Strain PG1 and PG19 were isolated from adults with pneumococcal bacteremia infection and included in the Pneumococcal Bacteremia Collection Nijmegen (PBCN)^8. All S. pneumoniae gene numbers refer to the T4 genome. Correspondence between homologous genes among S. pneumoniae strains and gene function annotations are described herewith. Escherichia coli strain AR538, Klebsiella pneumoniae strain AR497 and Salmonella enterica subsp Typhimurium strain AR635 were clinical isolates obtained from the Center of Disease Control (CDC). Staphylococcus aureus strain MN6 was kindly provided by George Sakoulas (Center of Immunity, Infection & Inflammation, UCSD School of Medicine). Unless otherwise specified, S. pneumoniae strains were cultivated in Todd Hewitt medium with 5% yeast extract (THY) with 5 μL/mL oxyrase (Oxyrase, Inc) or on sheep's blood agar plates (Northeastern Laboratories) at 37° C. with 5% CO2. A. baumannii, E. coll. K. pneumoniae, S. aureus and S. Typhimurium were cultured in Mueller Hinton broth II (Sigma) at 37° C. with 220 rpm constant shaking. Tn-Seq and RNA-Seq experiments of S. pneumoniae under nutrient-depletion and antibiotic conditions were performed in chemically defined medium (CDM)^9 and semi-defined minimal medium (SDMM)^10, respectively. RNA-Seq experiments for A. baumannii, S. Typhimurium, E. coll. K. pneumoniae, and S. aureus were performed in Mueller Hinton broth II. Single strain growth assays were performed at least three times using 96-well plates by taking OD600 measurements on a Tecan Infinite 200 PRO plate reader.

[2] = system: S. pneumoniae strain Taiwan-19F (19F); assay: Determination of relative minimal inhibitory concentration (MIC); details: for MIC: Streptococcus pneumoniae, 16 h, read-out: 1x MIC for 19F
Method: as §1

S. pneumoniae 19F = assay: Fitness outcome under antibiotic exposure (growth curve assay); details: for Fitness: S. pneumoniae 19F wild-type, growth curves; for Survive (real survival outcome): strain 19F, Adapted FALSE
Method: as §2, §3

S. pneumoniae strain D39 = assay: Real survival outcome (fitness outcome) under nutrient condition; details: strain D39, Adapted FALSE, Concentration NA
[3] = system: adapted S. pneumoniae strain D39; assay: Real survival outcome (fitness outcome) under nutrient condition, adapted strain; details: strain D39, Adapted TRUE, Concentration NA
[4] = system: antibiotic-adapted S. pneumoniae 19F (a19F); assay: Fitness outcome under antibiotic exposure (growth curve assay); details: for Fitness: a19F, 19F adapted to the respective antibiotic, 1xMIC and 1.5-2xMIC, growth curves; for Survive (real survival outcome): strain 19F, Adapted TRUE
Method: as §2, §3
(§4) D39 was used as the parental strain in nutrient-depletion evolution experiments; T4 and 19F were used as parental strains in antibiotic evolution experiments. […] Four replicate populations were serial passaged in CDM or SDMM as controls to identify background adaptations in nutrient or antibiotic adaptation experiments, respectively. […]

[5] = system: antibiotic-adapted S. pneumoniae T4 (aT4); assay: as above; details: for Survive (real survival outcome): strain T4, Adapted TRUE
Method: as §2, §3, §4

Compound: CO/N=C(\C(=O)N[C@@H]1C(=O)N2C(C(=O)O)=C(CSc3nc(=O)c(=O)[nH]n3C)CS[C@H]12)c1csc(N)n1 [Ceftriaxone, ceftriaxone]
- MIC [1]: 0.007 µg/mL (≈ 0.0126 µM)
- Fitness (S. pneumoniae T4): Low
- Survive (real survival outcome) (S. pneumoniae T4; Concentration NA): FALSE

Compound: CCCCCCCCCC(=O)N[C@@H](Cc1c[nH]c2ccccc12)C(=O)N[C@H](CC(N)=O)C(=O)N[C@@H](CC(=O)O)C(=O)N[C@@H]1C(=O)NCC(=O)N[C@@H](CCCN)C(=O)N[C@@H](CC(=O)O)C(=O)N[C@H](C)C(=O)N[C@@H](CC(=O)O)C(=O)NCC(=O)N[C@H](CO)C(=O)N[C@@H]([C@H](C)CC(=O)O)C(=O)N[C@@H](CC(=O)c2ccccc2N)C(=O)O[C@@H]1C [Daptomycin, daptomycin]
- MIC [1]: 35 µg/mL (≈ 21.6 µM)
- MIC [2]: 35 µg/mL (≈ 21.6 µM)
- Fitness (S. pneumoniae 19F): Low
- Survive (real survival outcome) (S. pneumoniae 19F; Concentration L (low)): FALSE
- Fitness (S. pneumoniae T4): Low
- Survive (real survival outcome) (S. pneumoniae T4; Concentration L (low)): FALSE

Compound: O=c1cc[nH]c(=O)[nH]1 [URA]
- Survive (real survival outcome) (S. pneumoniae T4; Concentration NA): TRUE
- Survive (real survival outcome) (S. pneumoniae strain D39): FALSE
- Survive (real survival outcome) [3]: TRUE

Compound: CC1(C)S[C@@H]2[C@H](NC(=O)[C@H](N)c3ccc(O)cc3)C(=O)N2[C@H]1C(=O)O [Amoxicillin, amoxicillin]
- MIC [1]: 0.12 µg/mL (≈ 0.328 µM)
- Fitness (S. pneumoniae T4): Low
- Survive (real survival outcome) (S. pneumoniae T4; Concentration NA): FALSE

Compound: NCC(=O)O [GLY]
- Survive (real survival outcome) (S. pneumoniae T4; Concentration NA): TRUE
- Survive (real survival outcome) (S. pneumoniae strain D39): FALSE

Compound: CC(C)[C@H](N)C(=O)O [VAL]
- Survive (real survival outcome) (S. pneumoniae T4; Concentration NA): TRUE
- Survive (real survival outcome) (S. pneumoniae strain D39): FALSE
- Survive (real survival outcome) [3]: TRUE

Compound: CC(=O)NC[C@H]1CN(c2ccc(N3CCOCC3)c(F)c2)C(=O)O1 [Linezolid, linezolid]
- MIC [1]: 0.5 µg/mL (≈ 1.48 µM)
- Fitness (S. pneumoniae T4): Low
- Survive (real survival outcome) (S. pneumoniae T4; Concentration NA): FALSE

Compound: CO[C@H]1/C=C/O[C@@]2(C)Oc3c(C)c(O)c4c(O)c(c(/C=N/N5CCN(C)CC5)c(O)c4c3C2=O)NC(=O)/C(C)=C\C=C\[C@H](C)[C@H](O)[C@@H](C)[C@@H](O)[C@@H](C)[C@H](OC(C)=O)[C@@H]1C [Rifampicin, rifampicin]
- MIC [1]: 0.035 µg/mL (≈ 0.0425 µM)
- MIC [2]: 0.035 µg/mL (≈ 0.0425 µM)

Compound: cotrimoxazole
- 1x MIC for T4 [1]: 6.5 µg/mL
- Fitness (S. pneumoniae T4): Low
- Survive (real survival outcome) (S. pneumoniae T4; Concentration NA): FALSE

Compound: penicillin
- 1x MIC for T4 [1]: 0.03 µg/mL
- 1x MIC for 19F ([2]; S. pneumoniae 19F, lowest concentration that abolishes bacterial growth, 16 hours, 37° C.): 2.25 µg/mL
- Fitness (S. pneumoniae 19F): High
- Survive (real survival outcome) (S. pneumoniae 19F; Concentration L (low)): TRUE
- Fitness (S. pneumoniae T4): Low
- Survive (real survival outcome) (S. pneumoniae T4; Concentration L (low)): FALSE
- Fitness [4]: High
- Survive (real survival outcome) ([5]; Concentration H (high)): TRUE
- Survive (real survival outcome) ([5]; Concentration L (low)): TRUE

Compound: C[C@H]1COc2c(N3CCN(C)CC3)c(F)cc3c(=O)c(C(=O)O)cn1c23 [Levofloxacin, levofloxacin]
- MIC [1]: 1 µg/mL (≈ 2.77 µM)
- MIC [2]: 1.1 µg/mL (≈ 3.04 µM)

Compound: CO/N=C(\C(=O)N[C@@H]1C(=O)N2C(C(=O)[O-])=C(C[N+]3(C)CCCC3)CS[C@H]12)c1csc(N)n1 [Cefepime, cefepime]
- MIC [1]: 0.8 µg/mL (≈ 1.66 µM)
- MIC [2]: 2.2 µg/mL (≈ 4.58 µM)
- Fitness (S. pneumoniae 19F): Low, and High
- Survive (real survival outcome) (S. pneumoniae 19F; Concentration H (high)): FALSE
- Survive (real survival outcome) (S. pneumoniae 19F; Concentration L (low)): TRUE
- Fitness (S. pneumoniae T4): Low
- Survive (real survival outcome) (S. pneumoniae T4; Concentration L (low)): FALSE

Compound: NC[C@H]1O[C@H](O[C@H]2[C@H](O)[C@@H](O[C@H]3O[C@H](CO)[C@@H](O)[C@H](N)[C@H]3O)[C@H](N)C[C@@H]2N)[C@H](O)[C@@H](O)[C@@H]1O [Kanamycin, kanamycin]
- MIC [1]: 90 µg/mL (≈ 186 µM)
- MIC [2]: 90 µg/mL (≈ 186 µM)

Compound: CN[C@H](CC(C)C)C(=O)N[C@H]1C(=O)N[C@@H](CC(N)=O)C(=O)N[C@H]2C(=O)N[C@H]3C(=O)N[C@H](C(=O)N[C@H](C(=O)O)c4cc(O)cc(O)c4-c4cc3ccc4O)[C@H](O)c3ccc(c(Cl)c3)Oc3cc2cc(c3O[C@@H]2O[C@H](CO)[C@@H](O)[C@H](O)[C@H]2O[C@H]2C[C@](C)(N)[C@H](O)[C@H](C)O2)Oc2ccc(cc2Cl)[C@H]1O [Vancomycin, vancomycin]
- MIC [1]: 0.24 µg/mL (≈ 0.166 µM)
- MIC [2]: 0.24 µg/mL (≈ 0.166 µM)
- Fitness (S. pneumoniae 19F): Low
- Survive (real survival outcome) (S. pneumoniae 19F; Concentration L (low)): FALSE
- Fitness (S. pneumoniae T4): Low
- Survive (real survival outcome) (S. pneumoniae T4; Concentration L (low)): FALSE
- Fitness [4]: High
- Survive (real survival outcome) ([4]; Concentration H (high)): TRUE
- Survive (real survival outcome) ([4]; Concentration L (low)): TRUE
- Fitness ([5]; aT4, T4 adapted to the respective antibiotic, 1xMIC and 1.5-2xMIC, growth curves): High
- Survive (real survival outcome) ([5]; Concentration H (high)): TRUE
- Survive (real survival outcome) ([5]; Concentration L (low)): TRUE

Compound: NC[C@H]1O[C@H](O[C@H]2[C@H](O)[C@@H](O[C@H]3O[C@H](CO)[C@@H](O)[C@H](N)[C@H]3O)[C@H](N)C[C@@H]2N)[C@H](N)C[C@@H]1O [Tobramycin, tobramycin]
- MIC [1]: 175 µg/mL (≈ 374 µM)
- Fitness (S. pneumoniae T4): Low
- Survive (real survival outcome) (S. pneumoniae T4; Concentration NA): FALSE

Compound: COc1c(N2C[C@@H]3CCCN[C@@H]3C2)c(F)cc2c(=O)c(C(=O)O)cn(C3CC3)c12 [Moxifloxacin, moxifloxacin]
- MIC [1]: 0.45 µg/mL (≈ 1.12 µM)

Compound: C[C@@H](O)[C@H]1C(=O)N2C(C(=O)O)=C(SCCN=CN)C[C@H]12 [Imipenem, imipenem]
- MIC [1]: 0.03 µg/mL (≈ 0.1 µM)

Compound: CN(C)[C@@H]1C(O)=C(C(N)=O)C(=O)[C@@]2(O)C(O)=C3C(=O)c4c(O)cccc4[C@@](C)(O)[C@H]3C[C@@H]12 [Tetracycline, tetracycline]
- MIC [1]: 8 µg/mL (≈ 18 µM)
- MIC [2]: 22 µg/mL (≈ 49.5 µM)
